In patent US11214578B2, “Urea/carbamates FAAH MAGL or dual FAAH/MAGL inhibitors and uses thereof” (Northeastern University, priority 2014, dated 2022):

Key:
Type in all cases: biochemical
Human FAAH (MBPΔTMhFAAH) = target: T1, Human FAAH (MBPΔTMhFAAH) (Homo sapiens, UniProt O00519); assay: Fluorescent assay protocol for hFAAH; conditions: human FAAH (MBP fusion, ΔTM), procedure as for rFAAH
T1 construct: made in house; host or cells: E. coli (pMALcE4 vector)
T1 sequence (O00519 30-579 limits assumed): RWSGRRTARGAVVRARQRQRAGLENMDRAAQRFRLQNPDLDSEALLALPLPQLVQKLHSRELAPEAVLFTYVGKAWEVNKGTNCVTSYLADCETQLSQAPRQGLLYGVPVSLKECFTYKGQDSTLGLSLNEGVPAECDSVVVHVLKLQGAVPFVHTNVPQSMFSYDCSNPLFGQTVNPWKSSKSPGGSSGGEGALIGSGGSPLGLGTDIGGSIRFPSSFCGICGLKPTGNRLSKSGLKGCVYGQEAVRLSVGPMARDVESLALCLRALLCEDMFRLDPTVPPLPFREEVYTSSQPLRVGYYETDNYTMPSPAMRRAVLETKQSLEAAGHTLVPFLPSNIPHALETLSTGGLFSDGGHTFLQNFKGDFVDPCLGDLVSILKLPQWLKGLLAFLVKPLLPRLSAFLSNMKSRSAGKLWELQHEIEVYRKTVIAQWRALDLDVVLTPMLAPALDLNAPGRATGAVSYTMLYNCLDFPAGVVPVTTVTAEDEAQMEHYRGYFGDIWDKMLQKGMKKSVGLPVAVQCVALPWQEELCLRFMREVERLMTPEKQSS
How it was run: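 MBP-fused ΔTM human FAAH from E. coli, pre-incubated 15 min at 25 °C with compound in 50 mM HEPES, 1 mM EDTA, 0.1% BSA, pH 7.4 (DMSO below 8%). Substrate AAMCA 20 μM (2×Km); fluorescence (ex 360/em 460) at 3 h gave % inhibition vs uninhibited control, triplicate, IC50 fitted.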

Rat MAGL (rMAGL) = target: T2, Rat MAGL (rMAGL) (Rattus norvegicus, UniProt Q8R431); assay: Fluorescent assay protocol for rMAGL; conditions: recombinant rat MAGL, procedure as for hMAGL; read-out: IC50 rMAGL
T2 construct: made in house; host or cells: E. coli
T2 sequence (Q8R431 1-303): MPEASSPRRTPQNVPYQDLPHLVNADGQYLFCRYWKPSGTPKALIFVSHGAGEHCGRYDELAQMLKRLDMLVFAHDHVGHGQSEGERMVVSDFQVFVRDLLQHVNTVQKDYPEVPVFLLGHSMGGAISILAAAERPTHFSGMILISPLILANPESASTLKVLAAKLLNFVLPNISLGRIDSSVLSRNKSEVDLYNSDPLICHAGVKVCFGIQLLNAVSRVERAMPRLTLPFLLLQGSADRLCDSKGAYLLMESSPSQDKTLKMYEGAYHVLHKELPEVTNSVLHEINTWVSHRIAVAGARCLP
How it was run: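 Rat MAGL run as for the human enzyme: AHMMCE substrate hydrolysis to fluorescent coumarin followed at 25° C. for 120 min, read every 15 min at 360/460 nm.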

Human MAGL (hMAGL) = target: T3, Human MAGL (hMAGL) (Homo sapiens, UniProt Q99685); assay: Fluorescent assay protocol for hMAGL (AHMMCE substrate); conditions: recombinant human MAGL, AHMMCE substrate, 15 min preincubation; read-out: IC50 hMAGL
T3 construct: hexahistidine; made in house; host or cells: E. coli
T3 sequence (Q99685 1-303): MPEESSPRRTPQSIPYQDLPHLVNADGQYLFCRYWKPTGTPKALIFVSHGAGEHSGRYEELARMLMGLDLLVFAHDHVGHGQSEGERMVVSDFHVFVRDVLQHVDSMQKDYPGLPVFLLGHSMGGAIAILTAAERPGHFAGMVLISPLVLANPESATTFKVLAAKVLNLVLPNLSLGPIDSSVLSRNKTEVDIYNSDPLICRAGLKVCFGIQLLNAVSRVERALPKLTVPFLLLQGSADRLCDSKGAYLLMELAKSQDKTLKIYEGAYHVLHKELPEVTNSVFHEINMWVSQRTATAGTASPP
How it was run: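 Hydrolysis of AHMMCE by human MAGL was monitored at 25°C for 120 min, with fluorescence at 360/460 nm recorded every 15 min and converted to 4-methylcoumarin using external standards. IC50 values were derived from triplicate wells at each inhibitor concentration.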

ΔTM rat FAAH = target: T4, ΔTM rat FAAH (Rattus norvegicus, UniProt P97612); assay: Fluorescent assay protocol for ΔTM rat FAAH (AAMCA substrate); conditions: 15 min preincubation, read-out: IC50 rFAAH
T4 construct: Preparation of Transmembrane Domain-Deleted Rat FAAH (ΔTM rFAAH); made in house; host or cells: E. coli
T4 sequence (P97612 30-579 limits assumed): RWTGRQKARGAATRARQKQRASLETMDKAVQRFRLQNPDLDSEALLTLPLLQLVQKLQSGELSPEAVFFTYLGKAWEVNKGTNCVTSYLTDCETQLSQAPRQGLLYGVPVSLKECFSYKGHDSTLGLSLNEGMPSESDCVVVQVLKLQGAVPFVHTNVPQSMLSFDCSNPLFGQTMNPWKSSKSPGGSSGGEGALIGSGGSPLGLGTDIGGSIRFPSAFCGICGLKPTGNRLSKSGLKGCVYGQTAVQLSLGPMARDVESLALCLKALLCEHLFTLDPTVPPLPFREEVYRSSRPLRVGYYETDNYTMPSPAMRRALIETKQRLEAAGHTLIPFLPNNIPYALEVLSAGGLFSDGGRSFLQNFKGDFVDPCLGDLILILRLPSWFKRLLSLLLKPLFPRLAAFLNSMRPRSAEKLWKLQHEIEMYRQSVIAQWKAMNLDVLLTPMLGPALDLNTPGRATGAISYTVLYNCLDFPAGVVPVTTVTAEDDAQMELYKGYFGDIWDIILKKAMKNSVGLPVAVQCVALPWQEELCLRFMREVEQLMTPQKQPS
How it was run: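 ΔTM rat FAAH (15 μg) was pre-incubated 15 min at 25° C with compound (screening at 1, 10 and 100 μM), then reacted with the fluorigenic substrate AAMCA. Percent inhibition came from fluorescence at 3 h (linear kinetics) relative to no-inhibitor controls, in triplicate.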

Row | SMILES | IC50 (Human FAAH (MBPΔTMhFAAH)) [nM] | IC50 (Rat MAGL (rMAGL)) [nM] | IC50 (Human MAGL (hMAGL)) [nM] | IC50 (ΔTM rat FAAH) [nM]
1 | O=C(Oc1cccc(Cl)n1)N1CCC(OC(c2ccccc2)c2ccccc2)CC1 [Example 57, 6-chloropyridin-2-yl 4-(benzhydryloxy)piperidine-1-carboxylate] | > 1000 | 10 to 100 | 10 to 100 | > 1000
2 | O=C(Oc1c(F)cccc1F)N1CCC(S(=O)(=O)c2ccc(Br)cc2)CC1 [Example 63, 2,6-Difluorophenyl 4-(4-bromophenylsulfonyl)piperidine-1-carboxylate] | > 1000 | 110 to 1000 | 110 to 1000 | > 1000
3 | Cc1ccc(S(=O)(=O)N2CCN(C(=O)Oc3ccc(Br)cc3)CC2)cc1 [Example 64, 4-bromophenyl 4-tosylpiperazine-1-carboxylate] | > 1000 | 10 to 100 | 10 to 100 | > 1000
4 | Cc1ccc(S(=O)(=O)N2CCN(C(=O)Oc3c(F)cccc3F)CC2)cc1 [Example 65, 2,6-difluorophenyl 4-tosylpiperazine-1-carboxylate] | > 1000 | 110 to 1000 | 110 to 1000 | > 1000
5 | Cc1ccc(S(=O)(=O)N2CCN(C(=O)Oc3ccc(-c4ccc(F)cc4)cc3O)CC2)cc1 [Example 66, 4′-fluoro-3-hydroxy-[1,1′-biphenyl]-4-yl 4-tosylpiperazine-1-carboxylate] | > 1000 | 10 to 100 | 10 to 100 | > 1000
6 | O=C(Nc1cccc(N2CCS(=O)(=O)CC2)c1)N1CCN(c2ccccc2)CC1 [Example 67, N-(3-(1,1-dioxidothiomorpholino)phenyl)-4-phenylpiperazine-1-carboxamide] | > 1000 | 10 to 100 | 10 to 100 | > 1000
7 | O=C(Nc1cccc(N2CCS(=O)(=O)CC2)c1)N1CCC(c2ccccc2)CC1 [Example 68, N-(3-(1,1-dioxidothiomorpholino)phenyl)-4-phenylpiperidine-1-carboxamide] | > 1000 | 110 to 1000 | 110 to 1000 | > 1000
8 | O=C(Oc1cccc(N2CCS(=O)(=O)CC2)c1)N1CCC(c2ccccc2)CC1 [Example 70, 3-(1,1-Dioxothiomorpholin-4-yl)phenyl 4-phenylpiperidine-1-carboxylate] | 110 to 1000 | 110 to 1000 | 110 to 1000 | 110 to 1000
9 | O=C(Oc1cccc(N2CCS(=O)(=O)CC2)c1)N1CCN(Cc2cccc(Oc3ccccc3)c2)CC1 [Example 71, 3-(1,1-dioxidothiomorpholino)phenyl 4-(3-phenoxybenzyl)piperazine-1-carboxylate] | 110 to 1000 | 10 to 100 | 10 to 100 | 110 to 1000
10 | O=C(Oc1cccc(N2CCS(=O)(=O)CC2)c1)N1CCN(Cc2ccc3ccccc3n2)CC1 [Example 72, 3-(1,1-dioxidothiomorpholino)phenyl 4-(quinolin-2-ylmethyl)piperazine-1-carboxylate] | 110 to 1000 | 110 to 1000 | 110 to 1000 | 110 to 1000
11 | CC1CN(c2ccccc2)CCN1C(=O)Oc1cccc(N2CCS(=O)(=O)CC2)c1 (stereo not drawn) [Example 73, 3-(1,1-dioxidothiomorpholino)phenyl 2-methyl-4-phenylpiperazine-1-carboxylate] | > 1000 | 10 to 100 | 10 to 100 | > 1000

Continued, values first:

Row | IC50 (Human FAAH (MBPΔTMhFAAH)) [nM] | IC50 (Rat MAGL (rMAGL)) [nM] | IC50 (Human MAGL (hMAGL)) [nM] | IC50 (ΔTM rat FAAH) [nM] | SMILES
12 | 110 to 1000 | 110 to 1000 | 110 to 1000 | 110 to 1000 | N#Cc1ccc(F)c(OC(=O)N2CCC(OC(c3ccccc3)c3ccccc3)CC2)c1 [Example 56, 5-cyano-2-fluorophenyl 4-(benzhydryloxy)piperidine-1-carboxylate]
13 | 10 to 100 | 10 to 100 | 10 to 100 | 110 to 1000 | N#Cc1cccc(OC(=O)N2CCC(S(=O)(=O)c3ccc(Br)cc3)CC2)c1 [Example 59, 3-Cyanophenyl 4-(4-bromophenylsulfonyl)piperidine-1-carboxylate]
14 | 10 to 100 | 10 to 100 | 10 to 100 | 110 to 1000 | N#Cc1ccc(F)c(OC(=O)N2CCC(S(=O)(=O)c3ccc(Br)cc3)CC2)c1 [Example 60, 5-Cyano-2-fluorophenyl 4-(4-bromophenylsulfonyl)piperidine-1-carboxylate]
15 | 10 to 100 | 10 to 100 | > 1000 | 10 to 100 | Cc1ccc(C#N)cc1OC(=O)N1CCC(S(=O)(=O)c2ccc(Br)cc2)CC1 [Example 61, 5-Cyano-2-methylphenyl 4-(4-bromophenylsulfonyl)piperidine-1-carboxylate]
16 | 10 to 100 | 10 to 100 | > 1000 | 10 to 100 | COc1ccc(C#N)cc1OC(=O)N1CCC(S(=O)(=O)c2ccc(Br)cc2)CC1 [Example 62, 5-Cyano-2-methoxyyphenyl 4-(4-bromophenylsulfonyl)piperidine-1-carboxylate]
17 | 110 to 1000 | 10 to 100 | 10 to 100 | 110 to 1000 | O=C(Oc1cccc(N2CCS(=O)(=O)CC2)c1)N1CCN(c2ccccc2)CC1 [Example 69, 3-(1,1-dioxidothiomorpholino)phenyl 4-phenylpiperazine-1-carboxylate]
18 | 10 to 100 | > 1000 | 110 to 1000 | 10 to 100 | N#Cc1cccc(OC(=O)N2CC(OCc3ccc(Cl)cc3)C2)c1 [Example 74, 3-Cyanophenyl 3-(4-chlorobenzyloxy)azetidine-1-carboxylate]
19 | 10 to 100 | > 1000 | 110 to 1000 | 10 to 100 | O=C(Oc1cccc(C(F)(F)F)c1)N1CC(OCc2ccc(Cl)cc2)C1 [Example 75, 3-(Trifluoromethyl)phenyl 3-(4-chlorobenzyloxy)azetidine-1-carboxylate]
20 | 10 to 100 | 110 to 1000 | 110 to 1000 | 10 to 100 | O=C(Oc1cccc(Br)c1)N1CC(OCc2ccc(Cl)cc2)C1 [Example 76, 3-Bromophenyl 3-(4-chlorobenzyloxy)azetidine-1-carboxylate]
21 | 10 to 100 | 110 to 1000 | 110 to 1000 | 10 to 100 | NC(=O)c1cccc(OC(=O)N2CC(OCc3ccc(Cl)cc3)C2)c1 [Example 77, 3-Carbamoylphenyl 3-(4-chlorobenzyloxy)azetidine-1-carboxylate]
